Each structure is given as a SMILES string.

We go through 30 compounds from the RepoRT retention time repository (doi:10.1002/rcm.4015).

The data set is described as follows: RP, Thermo Scientific Hypersil GOLD, 5 × 2.1 mm, 1.9 µm, 45 °C, 0.25 mL/min, estimated dead time 0.044 min; A: water + 0.1% formic acid, pH 3; B: 50% acetonitrile + 50% isopropanol + 0.1% formic acid, pH 3; gradient (min/%B) 0/5 0.5/5 5/50 5.5/95 6.5/95 10/5. To be noted: stereoisomer not certain.
In the case of `CCCCCCCCC=CCCCCCCCC(=O)OC(COC(=O)CCCCCCCCCCCCCCC)COP(=O)([O-])OCC[N+](C)(C)C` (stereo not given) [PC(34:1)], the LC retention time was 7.23 min.

Regarding `CCCCCC=CCC=CCCCCCCCCCC(=O)OC(COC(=O)CCCCCCCCCCCCC)COP(=O)([O-])OCC[N+](C)(C)C` (stereo not given) [PC(34:2)], the LC retention time was 6.89 min.

Turning to `CCC=CCC=CCC=CCCCCCCCC(=O)OC(COC(=O)CCCCCCCCCCCCCCC)COP(=O)([O-])OCC[N+](C)(C)C` (stereo not given) [PC(34:3)], the LC retention time was 7.4 min.

Regarding `CCCCCC=CCC=CCC=CCC=CCCCC(=O)OC(COC(=O)CCCCCCCCCCCCC)COP(=O)([O-])OCC[N+](C)(C)C` (stereo not given) [PC(34:4)], the LC retention time is 6.97 min.

For `CCCCCC=CCC=CCC=CCC=CCCCC(=O)OC(COC(=O)CCCCCCCCCCCCCCC)COP(=O)(O)OCC[N+](C)(C)C` (stereo not given) [PC(36:4)], the LC retention time is 7.43 min.

Turning to `CCCCCC=CCC=CCC=CCC=CCCCC(=O)OC(COC(=O)CCCCCC=CCCCCCCCC)COP(=O)([O-])OCC[N+](C)(C)C` (stereo not given) [PC(36:5)], the LC retention time is 7.38 min.

As for `CCCCCC=CCC=CCC=CCCCCC(=O)OCC(COP(=O)([O-])OCC[N+](C)(C)C)OC(=O)CCCCCCCCCCCCCCCCCCC` (stereo not given) [PC(38:3)], the LC retention time was 7.4 min.

Consider `CCCCCC=CCC=CCC=CCC=CCCCCCC(=O)OC(COC(=O)CCCCCCCCCCCCCCC)COP(=O)([O-])OCC[N+](C)(C)C` (stereo not given) [PC(38:4)], for which the LC retention time was 7.4 min.

With `CCCCCC=CCC=CCC=CCC=CCC=CCCC(=O)OC(COC(=O)CCCCCCCCCCCCCCC)COP(=O)([O-])OCC[N+](C)(C)C` (stereo not given) [PC(38:5)], the LC retention time was 7.41 min.

Turning to `CCC=CCC=CCC=CCC=CCC=CCC=CCCC(=O)OC(COC(=O)CCCCCCCCCCCCCCC)COP(=O)([O-])OCC[N+](C)(C)C` (stereo not given) [PC(38:6)], the LC retention time is 7.39 min.

For `CCC=CCC=CCC=CCC=CCC=CCC=CCCC(=O)OC(COC(=O)CCCCCC=CCCCCCCCC)COP(=O)([O-])OCC[N+](C)(C)C` (stereo not given) [PC(38:7)], the LC retention time is 7.37 min.

For `CCCCCC=CCC=CCC=CCC=CCC=CCCC(=O)OC(COC(=O)CCCCCCCCCCCCCCCCC)COP(=O)([O-])OCC[N+](C)(C)C` (stereo not given) [PC(40:5)], the LC retention time was 7.4 min.

On to `CCC=CCC=CCC=CCC=CCC=CCC=CCCC(=O)OC(COC(=O)CCCCCCCCCCCCCCCCC)COP(=O)([O-])OCC[N+](C)(C)C` (stereo not given) [PC(40:6)], for which the LC retention time was 7.14 min.

Consider `CCCCCC=CCC=CCC=CCC=CCCCCCC(=O)OCC(COP(=O)([O-])OCC[N+](C)(C)C)OC(=O)CCCCC=CCC=CCC=CCCCCC` (stereo not given) [PC(40:7)], for which the LC retention time was 7.4 min.

As for `CCCCCCCCCCCCCC=CC(O)C(COP(=O)([O-])OCC[N+](C)(C)C)NC(=O)CCCCCCCCCCCCCC` (stereo not given) [SM(33:1)], the LC retention time was 6.69 min.

Regarding `CCCCCCCCCCCCCC(=O)OCC(O)COP(=O)([O-])OCC[N+](C)(C)C` (stereo not given) [lysoPC(14:0)], the LC retention time was 6.62 min.

In the case of `CCCCCCCCCCCCCCCC(=O)OCC(O)COP(=O)([O-])OCC[N+](C)(C)C` (stereo not given) [lysoPC(16:0)], the LC retention time is 6.89 min.

`CCCCCCC=CCCCCCCCC(=O)OCC(O)COP(=O)([O-])OCC[N+](C)(C)C` (stereo not given) [lysoPC(16:1)]: the LC retention time is 6.67 min.

As to `CCCCCCCCC=CCCCCCCCC(=O)OCC(O)COP(=O)([O-])OCC[N+](C)(C)C` (stereo not given) [lysoPC(18:1)], the LC retention time was 6.93 min.

Take `CCCCCC=CCC=CCCCCCCCC(=O)OCC(O)COP(=O)([O-])OCC[N+](C)(C)C` (stereo not given) [lysoPC(18:2)]: the LC retention time was 6.72 min.

With `CCC=CCC=CCC=CCCCCCCCC(=O)OCC(O)COP(=O)([O-])OCC[N+](C)(C)C` (stereo not given) [lysoPC(18:3)], the LC retention time is 6.59 min.

Turning to `CCCCCCCCC=CCC=CCC=CCCCC(=O)OCC(O)COP(=O)([O-])OCC[N+](C)(C)C` (stereo not given) [lysoPC(20:3)], the LC retention time was 6.8 min.

For `CCCCCC=CCC=CCC=CCC=CCCCC(=O)OCC(O)COP(=O)([O-])OCC[N+](C)(C)C` (stereo not given) [lysoPC(20:4)], the LC retention time is 6.69 min.

In the case of `CCC=CCC=CCC=CCC=CCC=CCCCC(=O)OCC(O)COP(=O)([O-])OCC[N+](C)(C)C` (stereo not given) [lysoPC(20:5)], the LC retention time was 6.55 min.

With `CCC=CCC=CCC=CCC=CCC=CCC=CCCC(=O)OCC(O)COP(=O)([O-])OCC[N+](C)(C)C` (stereo not given) [lysoPC(22:6)], the LC retention time was 6.65 min.

As to `CCCCCCCCCCCCCCCCOCC(O)COP(=O)([O-])OCC[N+](C)(C)C` (stereo not given) [lysoPC(O-16:0)], the LC retention time is 7.08 min.

With `CCCCCCCCC=CCCCCCCCCOCC(O)COP(=O)([O-])OCC[N+](C)(C)C` (stereo not given) [lysoPC(O-18:1)], the LC retention time is 7.1 min.

For the compound `CCCCCCCCCCCCCCCCCC(=O)OCC(O)COP(=O)(O)OCCN` (stereo not given) [lysoPE(18:0)], the LC retention time was 6.75 min.

In the case of `CCCCCCCCC=CCCCCCCCC(=O)OCC(O)COP(=O)(O)OCCN` (stereo not given) [lysoPE(18:1)], the LC retention time is 6.92 min.

As for `CCCCCC=CCC=CCC=CCC=CCCCC(=O)OCC(O)COP(=O)(O)OCCN` (stereo not given) [lysoPE(20:4)], the LC retention time was 6.69 min.
